Results reported in patent publication US20240108684A1, “DOSING REGIMENS FOR TREATMENT OF FUNGAL INFECTIONS” (priority 2016, published 2024).
Converted amounts (≈) assume the structure as drawn. Read-outs that look alike come from different tables or passages of the source. *1 amine or outer side, *2 acyl side, *3 side chain or, on linkers, in order; H or OH if unused. Where a SMILES comes first, the peptide text is derived from it. Bridges are numbered along the chain shown (N, C = ends). [ ]: non-standard residue; d: D form. The star is where a group is joined. hTyr(3S-OH,4S-OH,3'-OSO3H) = N[C@H](C(=O)O)[C@H](O)[C@@H](O)c1ccc(O)c(OS(=O)(=O)O)c1; Orn(4R-OH,5R-OH) = O=C([C@H](C[C@@H](O)[C@@H](O)N[*:3])N[*:1])[*:2]; Pro(3S-OH,4S-Me) = C[C@H]1CN[C@H](C(=O)O)[C@H]1O; X1 = CCCCCOc1ccc(-c2cc(-c3ccc(C(=O)*)cc3)no2)cc1; Gln(3R-OH) = NC(=O)C[C@@H](O)[C@H](N)C(=O)O; Hyp = O=C(O)[C@@H]1C[C@@H](O)CN1

Experiments:
[1] = system: azole-resistant C. albicans R357 strain; assay: MIC and CLSI susceptibility, azole-resistant C. albicans R357; format: cell-based, Candida albicans; conditions: for Susceptibility of strain R357 in words: C. albicans R357 isolated from human blood
[2] = Solubility of test articles in vehicle, visual observation; conditions: WFI; 2 mg/mL
Method: Amphotericin B and fluconazole were in powder form. Amphotericin B was dissolved in 0.9% NaCl. Fluconazole was dissolved in water (WFI: water for injection).

C. auris isolates = assay: Candida auris antifungal susceptibility testing (AFST), CLSI M27-A3; format: cell-based
C. albicans (R357) = assay: Disseminated infection model with C. albicans R357, kidney fungal counts; format: in vivo, ICR mice
[3] = system: Aspergillus fumigatus (ATCC 13073); assay: Neutropenic mouse model of aspergillosis, survival; format: in vivo, mice; conditions: 2 mg/kg IP one dose; 10 days; P<0.05

Row | Structure (SMILES) | Susceptibility of strain R357 in words [1] | MIC ([1]; Candida albicans) [µg/mL] | Number of resistant C. auris isolates (C. auris isolates; of 38 isolates) | Susceptibility (CLSI) ([1]; C. albicans R357) | other results
1 | CC[C@@H]([C@H](C)O)n1ncn(-c2ccc(N3CCN(c4ccc(OC[C@@H]5CO[C@@](Cn6cncn6)(c6ccc(F)cc6F)C5)cc4)CC3)cc2)c1=O [Posaconazole, posaconazole] | resistant | > 64 | – | – | –
2 | OC(Cn1cncn1)(Cn1cncn1)c1ccc(F)cc1F [Fluconazole, fluconazole] | resistant | > 64 | 38 | R | Solubility [2]: S; Reduction in colony counts compared to vehicle (C. albicans (R357); 20 mg/kg PO, 48 hr after infection): 51%; Reduction in colony counts compared to vehicle (C. albicans (R357); 20 mg/kg PO, 72 hr after infection): 84%; Statistical significance of reduction versus vehicle (C. albicans (R357); 20 mg/kg PO, one-way ANOVA, Dunnett's test (P>0.05)): not significant
3 | CCCCCOc1ccc(-c2cc(-c3ccc(C(=O)N[C@H]4C[C@@H](O)[C@@H](O)NC(=O)[C@@H]5[C@@H](O)[C@@H](C)CN5C(=O)[C@H]([C@H](O)CC(N)=O)NC(=O)[C@H]([C@H](O)[C@@H](O)c5ccc(O)c(OS(=O)(=O)O)c5)NC(=O)[C@@H]5C[C@@H](O)CN5C(=O)[C@H]([C@@H](C)O)NC4=O)cc3)no2)cc1 [MICA, micafungin] (X1-[Orn(4R-OH,5R-OH)]T[Hyp][hTyr(3S-OH,4S-OH,3'-OSO3H)][Gln(3R-OH)][Pro(3S-OH,4S-Me)]; lactam 1-C) | – | – | – | – | Number of resistant C. auris isolates (C. auris isolates): 4
4 | CC[C@H](C)C[C@H](C)CCCCCCCCC(=O)N[C@H]1C[C@@H](O)[C@@H](NCCN)NC(=O)[C@@H]2[C@@H](O)CCN2C(=O)[C@H]([C@H](O)CCN)NC(=O)[C@H]([C@H](O)[C@@H](O)c2ccc(O)cc2)NC(=O)[C@@H]2C[C@@H](O)CN2C(=O)[C@H]([C@@H](C)O)NC1=O [Caspofungin, caspofungin] | – | – | 4 | S | Breakthrough at 48 h (C. auris isolates; C. auris strains): most strains breakthrough; MIC ([1]; Candida albicans, C. albicans R357, endpoint 50% inhibition, read-out: MIC): 0.25 µg/mL (≈ 0.229 µM)
5 | C[C@@H](c1ncncc1F)[C@](O)(Cn1cncn1)c1ccc(F)cc1F [Voriconazole, voriconazole] | resistant | > 64 | – | R | –
6 | C[C@@H]1[C@H](O)[C@@H](C)/C=C/C=C/C=C/C=C/C=C/C=C/C=C/[C@H](O[C@@H]2O[C@H](C)[C@@H](O)[C@H](N)[C@@H]2O)C[C@@H]2O[C@](O)(C[C@@H](O)C[C@@H](O)[C@H](O)CC[C@@H](O)C[C@@H](O)CC(=O)O[C@H]1C)C[C@H](O)[C@H]2C(=O)O [Amphotericin B, amphotericin B] | susceptible | – | – | S | Survival versus vehicle [3]: significantly longer survival than vehicle; MIC ([1]; C. albicans R357, endpoint 100% inhibition): 0.5 µg/mL (≈ 0.541 µM); Reduction in fungal counts (C. albicans (R357); 3 mg/kg IV, 72 hr): two log reduction; Antimicrobial effect versus vehicle (kidney fungal counts) (C. albicans (R357); 1 and 3 mg/kg IV once, 48 and 72 hr after infection): Significant effects
